Series [1] can be described thus: Test for solubility of alkyl-aryl 1,3-propanedione silicone derivative in silicone-based oils and Squalene at 25° C. It is filed as physicochemical. Conditions: for Solubility, Scwr, 30% / Solubility, Scwr, 50%: Scwr (Squalene); for Solubility, Scwr, 30%: 30% (w/w); for Solubility, Scwr, 50%: 50% (w/w); for Solubility, Silicon KF56, 30%: Silicone KF 56, 30% (w/w); for Solubility, Silicon KF56, 50%: Silicone KF 56, 50% (w/w); for Solubility, Sil. KF96, 30%: Silicone KF96, 30% (w/w); for Solubility, Sil. KF96, 50%: Silicone KF96, 50% (w/w). The method, then:
A circle (O) mark is put to a compound which is completely dissolved under 25° C., and a cross (X) mark is put to a compound which makes the solution cloudy even a little.

Series [2] in a line: Ultraviolet ray absorption spectrum. It is filed as physicochemical. Further details: ε: unit not given beside the values. Conditions: for ε: at λmax; for λmax: ultraviolet ray absorption.

Each structure is given as a SMILES string.

`COc1cc(C(=O)CC(=O)C(C)(C)C)ccc1OCCC[Si](C)(C)O[Si](C)(C)C` [Compound 1]: in series [1], the “Solubility, Scwr, 30%” value is “.largecircle”; the “Solubility, Scwr, 50%” value was “.largecircle”; the “Solubility, Silicon KF56, 30%” value is “.largecircle”; the “Solubility, Silicon KF56, 50%” value is given as “.largecircle”. In series [1], the “Solubility, Sil. KF96, 30%” value is “.largecircle” and the “Solubility, Sil. KF96, 50%” value is given as “.largecircle”. For the same molecule, in series [2], the ε was determined as 24090 and the λmax was 335 nm.
As for `COc1cc(C(=O)CC(=O)C(C)(C)C)ccc1OCCC[Si](C)(O[Si](C)(C)C)O[Si](C)(C)C` [Compound 2], in series [1], the “Solubility, Scwr, 30%” value is reported as “.largecircle”; the “Solubility, Scwr, 50%” value was “.largecircle”; the “Solubility, Silicon KF56, 30%” value is recorded as “.largecircle”; the “Solubility, Silicon KF56, 50%” value is recorded as “.largecircle”. Besides, in series [1], the “Solubility, Sil. KF96, 30%” value is on record as “.largecircle” and the “Solubility, Sil. KF96, 50%” value is reported as “.largecircle”. In series [2], this molecule yielded a ε of 23550 and a λmax of 334 nm.
Consider `COc1ccc(C(=O)CC(=O)C(C)(C)C)cc1OCCC[Si](C)(O[Si](C)(C)C)O[Si](C)(C)C` [Compound 3], for which, in series [1], the “Solubility, Scwr, 30%” value was “.largecircle”; the “Solubility, Scwr, 50%” value was “.largecircle”; the “Solubility, Silicon KF56, 30%” value is “.largecircle”; the “Solubility, Silicon KF56, 50%” value is on record as “.largecircle”. In series [1], the “Solubility, Sil. KF96, 30%” value is reported as “.largecircle” and the “Solubility, Sil. KF96, 50%” value is “.largecircle”.
`CCCCC(CC)C(=O)CC(=O)c1cc(CCC[Si](C)(O[Si](C)(C)C)O[Si](C)(C)C)c(OC)c(OC)c1` (centres unmarked) [Compound 5]: in series [1], the “Solubility, Scwr, 30%” value is “.largecircle”; the “Solubility, Scwr, 50%” value is recorded as “.largecircle”; the “Solubility, Silicon KF56, 30%” value is “.largecircle”; the “Solubility, Silicon KF56, 50%” value was “.largecircle”. Besides, in series [1], the “Solubility, Sil. KF96, 30%” value is “.largecircle” and the “Solubility, Sil. KF96, 50%” value is “.largecircle”. In series [2], the ε amounted to 23500 and the λmax is 334 nm.
`CCCCC(CC)C(=O)CC(=O)c1cc(CCC[Si](C)(O[Si](C)(C)C)O[Si](C)(C)C)c(OC)c(OC)c1` (centres unmarked) [Compound 6]: in series [1], the “Solubility, Scwr, 30%” value is on record as “.largecircle”; the “Solubility, Scwr, 50%” value is “.largecircle”; the “Solubility, Silicon KF56, 30%” value was “.largecircle”; the “Solubility, Silicon KF56, 50%” value was “.largecircle”. Moreover, in series [1], the “Solubility, Sil. KF96, 30%” value is recorded as “.largecircle” and the “Solubility, Sil. KF96, 50%” value is on record as “.largecircle”.
With `COc1cc(C(=O)CC(=O)C(C)(C)C)ccc1OCC(C)C[Si](C)(O[Si](C)(C)C)O[Si](C)(C)C` (centres unmarked) [Compound 7], in series [1], the “Solubility, Scwr, 30%” value was “.largecircle”; the “Solubility, Scwr, 50%” value is “.largecircle”; the “Solubility, Silicon KF56, 30%” value is “.largecircle”; the “Solubility, Silicon KF56, 50%” value is reported as “.largecircle”. In series [1], the “Solubility, Sil. KF96, 30%” value was “.largecircle” and the “Solubility, Sil. KF96, 50%” value is given as “.largecircle”. In series [2], this molecule returned a ε of 27350 and a λmax of 334 nm.
For `COc1cc(C(=O)CC(=O)C(C)(C)C)ccc1OCCCCC[Si](C)(O[Si](C)(C)C)O[Si](C)(C)C` [Compound 8], in series [1], the “Solubility, Scwr, 30%” value is “.largecircle”; the “Solubility, Scwr, 50%” value is on record as “.largecircle”; the “Solubility, Silicon KF56, 30%” value is on record as “.largecircle”; the “Solubility, Silicon KF56, 50%” value is listed as “.largecircle”. In addition, in series [1], the “Solubility, Sil. KF96, 30%” value was “.largecircle” and the “Solubility, Sil. KF96, 50%” value is given as “.largecircle”. Also, in series [2], the ε is recorded as 23220 and the λmax was 334 nm.
On to `COc1cc(C(=O)CC(=O)C(C)(C)C)cc(CCC[Si](C)(O[Si](C)(C)C)O[Si](C)(C)C)c1O` [Compound 9], for which, in series [1], the “Solubility, Scwr, 30%” value was “.largecircle”; the “Solubility, Scwr, 50%” value is given as “.largecircle”; the “Solubility, Silicon KF56, 30%” value is “.largecircle”; the “Solubility, Silicon KF56, 50%” value is “.largecircle”. In addition, the “Solubility, Sil. KF96, 30%” value in series [1] was “.largecircle”. In series [2], this molecule gave a ε of 24000 and a λmax of 342 nm.

These data come from patent US5225583A, “Alkyl-aryl 1,3-propanedione silicone derivative and an external preparation for skin with the derivative compounded therein” (Shiseido Co., Ltd., priority 1991, dated 1993).
